{"source": "ChEMBL document CHEMBL1201862", "about": "“PubChem BioAssay data set” (2004)", "key": {"[1]": {"molecular_target": "Voltage-gated inwardly rectifying potassium channel KCNH2 (Homo sapiens, UniProt Q12809)", "sequence (Q12809 whole entry)": "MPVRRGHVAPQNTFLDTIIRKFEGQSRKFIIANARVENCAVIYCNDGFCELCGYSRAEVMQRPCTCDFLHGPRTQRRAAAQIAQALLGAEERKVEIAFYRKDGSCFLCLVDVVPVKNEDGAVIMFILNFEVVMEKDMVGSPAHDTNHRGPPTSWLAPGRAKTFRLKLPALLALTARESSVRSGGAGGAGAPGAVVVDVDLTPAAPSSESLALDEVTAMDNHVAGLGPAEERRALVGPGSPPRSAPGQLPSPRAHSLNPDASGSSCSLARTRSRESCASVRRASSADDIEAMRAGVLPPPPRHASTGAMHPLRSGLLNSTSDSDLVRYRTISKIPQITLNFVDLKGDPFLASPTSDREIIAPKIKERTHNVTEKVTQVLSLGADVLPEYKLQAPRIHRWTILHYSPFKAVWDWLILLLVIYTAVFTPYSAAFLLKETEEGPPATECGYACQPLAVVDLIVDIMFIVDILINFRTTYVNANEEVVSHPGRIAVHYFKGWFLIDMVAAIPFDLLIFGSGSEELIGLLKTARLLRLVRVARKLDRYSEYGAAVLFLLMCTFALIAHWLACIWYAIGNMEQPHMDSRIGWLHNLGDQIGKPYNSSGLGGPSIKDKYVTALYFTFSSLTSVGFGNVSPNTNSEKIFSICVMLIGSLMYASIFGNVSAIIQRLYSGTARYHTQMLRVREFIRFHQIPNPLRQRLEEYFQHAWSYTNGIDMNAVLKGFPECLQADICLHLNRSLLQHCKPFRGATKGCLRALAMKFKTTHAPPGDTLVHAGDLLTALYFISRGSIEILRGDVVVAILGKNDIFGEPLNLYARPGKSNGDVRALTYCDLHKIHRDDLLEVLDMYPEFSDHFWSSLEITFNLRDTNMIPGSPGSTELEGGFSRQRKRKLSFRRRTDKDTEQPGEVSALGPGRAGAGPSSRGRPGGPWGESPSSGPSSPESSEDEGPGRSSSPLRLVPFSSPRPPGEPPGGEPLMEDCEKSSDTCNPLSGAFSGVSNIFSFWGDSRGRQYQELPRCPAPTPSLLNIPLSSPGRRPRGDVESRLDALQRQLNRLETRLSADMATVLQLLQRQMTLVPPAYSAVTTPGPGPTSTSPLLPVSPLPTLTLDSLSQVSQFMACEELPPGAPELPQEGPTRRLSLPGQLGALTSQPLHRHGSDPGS", "details": "Potency"}, "[2]": {"molecular_target": "Trypsin (Sus scrofa, UniProt P00761)", "sequence (P00761 whole entry)": "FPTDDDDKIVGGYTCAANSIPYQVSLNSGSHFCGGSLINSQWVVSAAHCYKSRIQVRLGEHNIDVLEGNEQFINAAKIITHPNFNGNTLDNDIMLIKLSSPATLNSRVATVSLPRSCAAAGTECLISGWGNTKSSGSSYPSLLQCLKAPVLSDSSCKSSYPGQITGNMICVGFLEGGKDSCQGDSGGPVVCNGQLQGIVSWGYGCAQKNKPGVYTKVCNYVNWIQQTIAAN", "test": "porcine trypsin inhibitors, dose response, selectivity assay for Rce1 protease inhibitor project, biochemical, quenched peptide fluorescence, cherry-pick (AID 488789)"}, "[3]": {"molecular_target": "CAAX prenyl protease 2 (Homo sapiens, UniProt Q9Y256)", "sequence (Q9Y256 whole entry)": "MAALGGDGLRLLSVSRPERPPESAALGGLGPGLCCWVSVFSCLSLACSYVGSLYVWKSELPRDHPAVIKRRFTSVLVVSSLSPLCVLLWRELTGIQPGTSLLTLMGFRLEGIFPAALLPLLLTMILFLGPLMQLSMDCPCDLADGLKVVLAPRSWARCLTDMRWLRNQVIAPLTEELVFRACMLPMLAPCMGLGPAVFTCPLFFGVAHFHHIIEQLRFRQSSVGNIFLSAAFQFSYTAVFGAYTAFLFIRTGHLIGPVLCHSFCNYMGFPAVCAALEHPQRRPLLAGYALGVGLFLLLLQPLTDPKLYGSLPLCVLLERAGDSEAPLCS", "test": "human Rce1 protease inhibitors, dose response, biochemical, yeast membranes, quenched-peptide fluorescence, cherry-pick (AID 588849)"}, "[4]": {"test": "Luminescence Cell-Based Secondary HTS screen to identify cytotoxic compounds of NIH3T3 cells. [Related pubchem assays: 1885, 1968 ]", "type": "functional"}, "[5]": {"test": "inhibitors of Trypanosoma cruzi host-cell infection, confirmation, beta-gal luminescence, NIH3T3 host cells (AID 2630)", "type": "functional, cell-based", "details": "Mus musculus"}, "[6]": {"test": "Luminescence Cell-Based/Microorganism Confirmation at Dose of Inhibitors of Trypanosoma cruzi Infection. [Related pubchem assays: 1885, 1968 ]", "type": "functional"}, "[7]": {"test": "cytotoxicity in HEK-293T NF-kB-Luc cells, dose response, cytotoxicity control for B/T-cell NF-kB inhibitor project, cell-based, uHTS hits (AID 489019);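 further: IC50 reflects cytotoxicity as loss of cell viability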", "type": "functional"}, "[8]": {"molecular_target": "Galanin receptor type 3 (Homo sapiens, UniProt O60755)", "sequence (O60755 whole entry)": "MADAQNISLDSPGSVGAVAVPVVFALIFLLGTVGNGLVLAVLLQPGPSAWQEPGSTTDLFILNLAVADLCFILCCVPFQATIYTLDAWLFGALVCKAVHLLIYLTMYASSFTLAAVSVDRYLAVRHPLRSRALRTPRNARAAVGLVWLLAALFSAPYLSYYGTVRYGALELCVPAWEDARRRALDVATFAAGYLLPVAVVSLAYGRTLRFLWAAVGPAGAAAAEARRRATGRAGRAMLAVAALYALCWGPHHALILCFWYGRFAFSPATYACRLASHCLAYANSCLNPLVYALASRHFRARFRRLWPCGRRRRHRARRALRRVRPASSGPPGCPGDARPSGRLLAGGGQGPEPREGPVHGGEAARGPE", "test": "Fluorescence-based cell-based primary high throughput dose response assay to identify antagonists of the Galanin Receptor 3 (GalR3).", "type": "functional"}, "[9]": {"system": "Jurkat", "test": "antigen receptor-induced NF-kB inhibitors, dose response, Jurkat, luciferase reporter, luminescence, B- and T-cell (AID 489004);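 further: NF-kB luciferase reporter Jurkat cells stimulated with PMA plus ionomycin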", "type": "functional, cell-based", "details": "Homo sapiens"}, "[10]": {"molecular_target": "T1, COUP transcription factor 2 (Homo sapiens, UniProt P24468)", "T1 sequence (P24468 whole entry)": "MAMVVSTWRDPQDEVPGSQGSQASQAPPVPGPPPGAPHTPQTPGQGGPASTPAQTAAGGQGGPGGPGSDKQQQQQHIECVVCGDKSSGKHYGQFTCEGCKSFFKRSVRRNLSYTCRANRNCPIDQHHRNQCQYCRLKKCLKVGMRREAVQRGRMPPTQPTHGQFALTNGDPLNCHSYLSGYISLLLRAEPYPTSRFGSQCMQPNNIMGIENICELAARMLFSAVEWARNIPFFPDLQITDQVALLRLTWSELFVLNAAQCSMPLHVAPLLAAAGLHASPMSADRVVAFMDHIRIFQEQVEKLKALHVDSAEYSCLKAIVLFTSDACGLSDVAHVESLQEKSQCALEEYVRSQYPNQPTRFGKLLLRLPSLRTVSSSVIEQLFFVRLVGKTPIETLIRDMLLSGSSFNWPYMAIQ", "test": "Luminescence-based cell-based high throughput dose response assay to identify inhibitors of COUP-TFII (NR2F2).", "type": "functional"}, "[11]": {"molecular_target": "Galanin receptor type 2 (Homo sapiens, UniProt O43603)", "sequence (O43603 whole entry)": "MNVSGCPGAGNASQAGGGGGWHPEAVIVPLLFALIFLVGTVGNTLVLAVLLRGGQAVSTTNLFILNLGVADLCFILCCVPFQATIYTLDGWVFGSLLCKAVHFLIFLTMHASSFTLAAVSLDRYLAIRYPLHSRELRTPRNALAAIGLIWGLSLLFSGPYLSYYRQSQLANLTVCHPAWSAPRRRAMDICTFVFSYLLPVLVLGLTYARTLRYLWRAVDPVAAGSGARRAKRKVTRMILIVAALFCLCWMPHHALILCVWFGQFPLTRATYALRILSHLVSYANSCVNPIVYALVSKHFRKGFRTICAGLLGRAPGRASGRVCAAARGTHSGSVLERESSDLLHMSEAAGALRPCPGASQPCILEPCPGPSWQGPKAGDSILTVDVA", "test": "Dose Response cell-based high-throughput screening assay to identify antagonists of galanin receptor 2 (GALR2). [Related pubchem assays: 828, 866 ]", "type": "functional"}, "[12]": {"test": "cells", "type": "functional, cell-based", "details": "HEK-CNG"}, "[13]": {"molecular_target": "Beta-arrestin-1 (Homo sapiens, UniProt P49407)", "sequence (P49407 whole entry)": "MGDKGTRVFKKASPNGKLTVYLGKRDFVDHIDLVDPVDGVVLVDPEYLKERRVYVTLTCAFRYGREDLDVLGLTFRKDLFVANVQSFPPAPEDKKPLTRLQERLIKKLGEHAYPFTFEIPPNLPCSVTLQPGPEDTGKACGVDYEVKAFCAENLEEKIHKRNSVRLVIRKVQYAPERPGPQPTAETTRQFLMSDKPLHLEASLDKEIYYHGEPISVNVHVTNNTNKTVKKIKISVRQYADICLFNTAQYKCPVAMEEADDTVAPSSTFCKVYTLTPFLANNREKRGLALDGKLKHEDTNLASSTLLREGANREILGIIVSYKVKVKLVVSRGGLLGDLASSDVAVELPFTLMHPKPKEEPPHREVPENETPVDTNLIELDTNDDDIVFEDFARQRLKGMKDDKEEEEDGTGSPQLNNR", "test": "inhibitors of arrestin peptide binding to AP2, dose response, biochemical, cherry pick 1, beta2-adaptin appendage, flow cytometry (AID 588783)", "type": "functional"}}, "note": "Calls of active or inactive are those of the source.", "data": [{"smiles": "CCCN(CCC)C1Cc2cc(OC)c(OC)cc2C1", "values": [{"measurement": "AC50", "setting": "[1]", "result": "14.1 µM (inconclusive)"}]}, {"smiles": "COc1ccc(/C=C\\c2cc(OC)c(OC)cc2CC[N+](C)(C)C)cc1OC", "values": [{"measurement": "AC50", "setting": "[2]", "result": "11.6 µM (active)"}, {"measurement": "AC50", "setting": "[3]", "result": "13.2 µM (active)"}]}, {"smiles": "CCc1ccc2nc(N(CCN(C)C)C(=O)c3ccc4ncsc4c3)sc2c1", "values": [{"measurement": "EC50", "setting": "[4]", "result": "> 195 µM (inconclusive)"}, {"measurement": "EC50", "setting": "[5]", "result": "0.176 µM (active)"}, {"measurement": "EC50", "setting": "[6]", "result": "0.176 µM (active)"}]}, {"smiles": "O=C(CSc1nnnn1C1CC2CCC1C2)Nc1ccnc2ccccc12", "note": "(stereo not drawn)", "values": [{"measurement": "IC50", "setting": "[7]", "result": "45.1 µM (inactive)"}, {"measurement": "IC50", "setting": "[8]", "result": "0.0869 µM (active)"}, {"measurement": "IC50", "setting": "[9]", "result": "61.4 µM (inactive)"}, {"measurement": "IC50", "setting": "[10]", "result": "0.568 µM (active)"}, {"measurement": "IC50", "setting": "[11]", "result": "> 42 µM (not active)"}, {"measurement": "EC50", "setting": "[12]", "result": "> 29.9 µM (inactive)"}]}, {"smiles": "CCN1/C(=C/c2ccc3cc(C)ccc3[n+]2C)Sc2ccc3sccc3c21", "values": [{"measurement": "IC50", "setting": "[13]", "result": "3.12 µM (active)"}]}]}
